Laboratory results taken from patent US20060194776A1, “Compositions and methods for treating tissue ischemia” (priority 2003, published 2006).
Where two headings read alike, the source gives them in different places.

Assays:
[1] = system: endothelial progenitor cells (EPCs) in peripheral blood
Description: (§1) Peripheral blood mononuclear cells (PBMNCS) were isolated from 500 μl of peripheral blood obtained from each mouse. PBMNCs were cultured in EBM media (Clonetics, San Diego, Calif.) with 5% fetal bovine serum (FBS), antibiotics, and growth factors (EPC medium) on four-well glass slides coated with rat plasma vitronectin (Sigma) in 0.5% gelatin solution. Four days after culture, EPCs, recognized as attaching spindle-shaped cells, were assayed by co-staining with acetylated LDL (acLDL)-DiI (Biomedical Technologies, Stoughton, Mass.) and Bandeiraea simplicifolia (BS-1) lectin I (Vector Laboratories, Burlingame, Calif.), indicators of endothelial lineage, and conjugated with FITC (Sigma). EPCs were identified as double-positive cells under fluorescent microscopy. The number of double-positive cells per sample, measured in fifteen fields under 20× magnification, was counted in a blinded manner.

[2] = system: FVB mice after MI (LAD ligation)
Description: (§2) Eight-week old male FVB mice were anesthetized with sodium pentobarbital (50 mg/kg IP). The animals were intubated orally with a 22G IV catheter and artificially ventilated with a respirator (Harvard Apparatus). A left intercostal thoracotomy was performed and the ribs were retracted with 5-0 polypropylene sutures. After the pericardium was opened, the left anterior descending (LAD) branch of the left coronary artery was ligated proximal to the bifurcation between the LAD and the diagonal branch using 8-0 polypropylene sutures and visualized with a dissecting microscope. Positive end-expiratory pressure was applied to fully inflate the lungs, and the chest was closed with 7-0 polypropylene sutures. After the closure of chest wall, mice randomly received either a single subcutaneous injection of 125 μg AMD3100 (AMD group) or saline (control group). After physiological assessment at one, two and four weeks after MI, a subgroup of the mice were euthanized by intravenous administration of a lethal dose of pentobarbital.
Transthoracic echocardiography (SONOS 5500, Hewlett Packard) was performed just before MI and one, two and four weeks after MI. Left ventricular diastolic (LVDd) and systolic (LVDs) dimensions and fractional shortening were measured at the mid-papillary muscle level. Hemodynamic measurements were obtained at two and four weeks after MI using a 1.0-French high-fidelity pressure catheter (Millar Instruments, Houston, Tex.) via the left carotid artery. LV systolic pressure and maximal positive (+dP/dt) and negative (−dP/dt) pressure development were recorded after stabilization of LV function and heart rate.

mice after AMI = system: mice after AMI
Description: as §2
All values were expressed as mean±the standard error of the mean. Statistical significance was evaluated using Wilcoxon Rank Sum Test for comparisons between mice receiving AMD3100 and those receiving saline. Overall survival of all the mice was assessed by Kaplan-Meier analysis. Survival in individual experimental groups was also analyzed by Fisher's extract probability test. A p value of less than 0.05 was considered statistically significant.

[3] = system: capillaries of left ventricular myocardium; conditions: two weeks after AMI
Description: (§3) The explanted hearts of sacrificed mice were sliced in a bread-loaf fashion into transverse sections from apex to base (base-, mid-, and apex-portions) and fixed with 4% paraformaldehyde. Tissues were embedded in paraffin and sectioned for elastic tissue/trichrome staining and immunohistochemistry using the murine-specific EC marker Bandeiraea simplicifolia lectin I (Isolectin B4) (Vector laboratories).
(§4) Capillary density was assessed by histological examination of five randomly selected fields of tissue sections from segments of the left ventricular myocardium served by the occluded LAD. Capillaries were recognized as tubular structures positive for isolectin B4. Elastic tissue/trichrome-stained tissues from the mice four weeks after MI were used to measure the average ratio of the external circumference of fibrosis area to LV area.

left ventricle fibrosis = conditions: two weeks after AMI
Description: as §3, §4

EPCs in peripheral blood = system: EPCs in peripheral blood
Description: as §1
To evaluate the effect of AMD-3100 on circulating EPC kinetics, EPC counts (cells/mm^2) were taken from peripheral blood one and two weeks after AMI. At each time point after the induction of MI, mononuclear cells were isolated from peripheral blood and total BM cells that had been obtained by flushing the tibias and femurs. EPCs were counted by culturing as described in Example 1, and stained with both acLDL-DiI and BS-1 lectin. Double positive cells were counted in 15 fields under objective 20× magnification per sample in a blinded manner.

[4] = system: EPCs in BM mononuclear cells; conditions: one week after MI
Description: (§5) Fluorescence-activated cell sorting (FACS) was used to identify EPCs from mononuclear cells isolated both from peripheral blood and bone marrow. The viable mononuclear cell population was analyzed for the expression of Sca-1-FITC (Pharmingen) and Flk-1 (Santa Cruz) conjugated with the corresponding phycoerythrin-labeled secondary antibody (Sigma). Isotype-identical antibodies served as negative controls. Immunofluorescence-labeled cells were fixed with 2% paraformaldehyde and analyzed by quantitative flow cytometry using a FACStar flow cytometer (Becton Dickinson) and Cell Quest Software that counted 10,000 events per sample.

[5] = system: EPCs isolated from peripheral blood; conditions: one week after MI
Description: as §5

MMP-2 = conditions: one week after MI; RT-PCR
Description: To clarify the mechanism of BM-EPC kinetics induced by AMD3100, RT-PCR was performed for MMP-9 mRNA expression on BM-mononuclear cells one week after MI was performed. RNA was extracted from mononuclear cells isolated from bone marrow using TRIzol reagent (Invitrogen) according to the manufacture's instruction. Reverse transcriptase-polymerase chain reaction (RT-PCR) of the MMP-9 and GAPDH genes was performed using 1 μg of total RNA. PCR was performed for 25 cycles for both MMP-9 and GAPDH; each cycle maintained 94° C. for 30 seconds and 64° C. for three minutes. Amplification was carried out in 20-μl reaction mixtures containing 0.4 U Taq polymerase.

[6] = system: BS lectin 1 and β-gal double-positive cells; conditions: one week after AMI; 400×
Description: Apex-sections from the Tie-2/LZ/BMT mice were embedded in OCT compound (Miles Scientific) and snap-frozen in liquid nitrogen for fluorescence microscopy immediately after sacrifice. Immunohistochemical staining was performed using antibodies against the rabbit anti-B-galactosidase IgG (CORTEX Biochem) and the murine-specific EC marker fluorescein griffonia simplicifolia lectin I (Vector Laboratories).
Sections of ischemic (FIGS. 12A-12F) and intact (FIGS. 13A-13F) myocardium were stained for both BS lectin 1 (green fluorescence) and β-galactosidase (red fluorescence).

[7] = system: X-gal positive cells (bone-marrow derived endothelial cells) in left ventricle; conditions: for number of X-gal positive cells: infarct and border area, Tie2-LacZ/BMT mice
Description: This Example describes the experimental design of the Tie2-LacZ/BMT mouse model. […] FVB/N background mice (n=30) were irradiated to kill their endogenous bone marrow. They were then given a bone marrow transplant (BMT) of 2×10^6 mononuclear cells (MNCs) derived from age-matched (4 weeks old) Tie2-LacZ mice (FVB/N-TgN[TIE2LacZ]182Sato, Jackson Lab). AMIs were induced in the mice (now called Tie2-LacZ/BMT mice) by LAD ligation four weeks after BMT, by which time the bone marrow of the recipient mice had been reconstituted. Right after AMI, the mice were each given a single subcutaneous injection of AMD-3100 (125 μg) or saline (control). Bone marrow cells were obtained using procedures described above. Bone marrow mononuclear cells were also isolated by density centrifugation. Tissue analysis was done at one or two weeks.
Tie-2/LZ/BMT mice were sacrificed at one and two weeks after MI. The explanted hearts were sliced in a bread-loaf fashion into transverse sections from apex to base (base-, mid-, and apex-portions). Mid-portions of the hearts were fixed in 4% paraformaldehyde for three hours at room temperature and incubated in X-gal solution overnight at 37° C. The target tissue samples were then placed in PBS [need to spell this out] and examined under a dissecting microscope for macroscopic identification of lacZ-expressing cells. Histological sections of the mid-portion heart tissue were counterstained with hematoxylin and eosin and assessed by light microscopy. The number of X-gal positive cells in six randomly chosen fields at 40× magnification were counted in a blinded manner.
Left ventricle sections of AMD-3100-treated and control Tie2-LacZ/BMT mice were analyzed one and two weeks after AMI. […] The quantitative analysis of X-gal positive cells was evaluated by histological examination of six randomly selected fields in the infarct and border area.

[8] = 1 week after MI, 125 μg s.c. after MI
[9] = 2 weeks after MI, 125 μg s.c. after MI
[10] = 2 weeks after MI, 125 μg s.c. after MI, listed as AMD
[11] = 4 weeks after MI, 125 μg s.c. after MI
[12] = 4 weeks after MI, 125 μg s.c. after MI, listed as AMD

## c1cc(CN2CCCNCCNCCCNCC2)ccc1CN1CCCNCCNCCCNCC1 [AMD-3100, 1,1′-[1,4-phenylene-bis(methylene)]-bis-1,4,8,11-tetraazacyclotetradecane]
[1]; 1 hour after single s.c. injection of 125 μg, FVB/N mice, peripheral blood
  maximal MNCs and EPCs (number): 613±89 cells/mm^2
[1]; after single s.c. injection of 125 μg
  time until MNC/EPC numbers returned to baseline: ≤ 24 h
[1]; single s.c. injection of 125 μg
  time of maximal MNCs and EPCs after drug administration: 1 h
[2]; [8]
  FS (fractional shortening): 35 ± 2%
  HR (heart rate): 494 ± 24 bpm
  LVDd: 3.5 ± 0.1 mm
  LVDs: 2.2 ± 0.1 mm
[2]; [9]
  FS (fractional shortening): 34±1%
  HR (heart rate): 515 ± 16 bpm
  LV +dP/dt: 3383±104 mm Hg/s
  LV −dP/dt: 2213±113 mm Hg/s
  LVDd: 3.8±0.1 mm
  LVDs: 2.5±0.1 mm
  LVEDP: 1.6±0.4 mmHg
  LVSP: 71±2 mmHg
[2]; [10]
  FS (fractional shortening): 34±1%
  LV +dP/dt: 3475±168 mm Hg/s
  LV −dP/dt: 2842 ± 200 mm Hg/s
  LVDd: 3.8 ± 0.1 mm
  LVDs: 2.5 ± 0.1 mm
  LVEDP: 1.5±0.2 mmHg
  LVSP: 73 ± 3 mmHg
[2]; 2 weeks after MI, 125 μg s.c. after MI, listed as AMD3100
  LVDd: 3.8±0.1 mm
[2]; 3 wks after MI (as printed in text)
  LVDs: 2.5±0.2 mm
[2]; [11]
  HR (heart rate): 473 ± 26 bpm
  LV −dP/dt: 2213 ± 112 mm Hg/s
  LVDd: 4.0±0.1 mm
  LVDs: 2.6±0.2 mm
[2]; [12]
  FS (fractional shortening): 28±1%
  LV +dP/dt: 3383±104 mm Hg/s
  LVDd: 4.0 ± 0.1 mm
  LVDs: 2.9 ± 0.1 mm
  LVEDP: 1.6±0.4 mmHg
  LVSP: 71±2 mmHg
[2]; after MI, vs control group
  difference in heart rate between the two groups: no significant difference
[2]; before MI
  FS (fractional shortening): 52 ± 1%
  HR (heart rate): 510 ± 26 bpm
  LVDd: 2.8 ± 0.1 mm
  LVDs: 1.4 ± 0.1 mm
[2]; before MI and one week after MI, vs saline
  LVDd, LVDs, fractional shortening, and heart rate, difference between the groups: not significantly different
[2]; two weeks after MI, vs control
  difference in LVSP between the groups: no significant difference
Mice after AMI; 14 weeks after AMI (so in the source), FIG. 4A
  mice still living: 64%
Mice after AMI; another group of mice, four weeks after MI, FIG. 4B
  mice died: 42%
Mice after AMI; four weeks after MI, FIG. 4B
  survival rate vs mice receiving saline: higher
[3]
  capillary density in border zone: 4005±189 /mm^2
Left ventricle fibrosis
  fibrosis area of left ventricle: 25±6%
EPCs in peripheral blood; four weeks after AMI
  number of cultured EPCs: returned to basline
EPCs in peripheral blood; one week after AMI
  number of EPCs in peripheral blood: 868±210 /mm^2
EPCs in peripheral blood; two weeks after AMI
  number of EPCs in peripheral blood: 556±47 /mm^2
[4]
  EPCs (Sca-1/Flk-1 positive) in BM mononuclear cells by FACS: 1.9±0.1%
[5]
  EPCs (Sca-1/Flk-1 double positive) in peripheral blood by FACS: 11.3±1.4%
MMP-2
  expression of MMP-2 in BM mononuclear cells: not
[6]
  double-positive cells in a representative section: eight
  double-positive cells in another representative section: eight
  double-positive cells in tissue (merged fluorescence microscopy): marked increase
[7]; 1 week after AMI
  number of X-gal positive cells: 3776±113 /mm2
[7]; 2 weeks after AMI
  number of X-gal positive cells: 1906±138 μmm2
[7]; one and two weeks after AMI
  X-gal staining of the left ventricle (macroscopic) vs controls: marked increase
